ChEMBL document CHEMBL1127021, “Structure-activity relationship of a series of phenylureas linked to 4-phenylimidazole. Novel potent inhibitors of acyl-CoA:cholesterol O-acyltransferase with antiatherosclerotic activity. 2” (J Med Chem, 1993)

Assays:
Rattus norvegicus [1] = species on record: Rattus norvegicus; assay: Tested for hypocholesterolemic activity required to decrease serum total cholesterol; assay type: functional
Rattus norvegicus [2] = assay: Cholesterol lowering activity in rats after a dose of 4 mg/kg once a day for 2 days; assay type: functional
[3] = target: T1, Acyl-CoA:cholesterol acyltransferase (Oryctolagus cuniculus, UniProt Q95214); assay: Inhibition against acyl coenzyme A:cholesterol acyltransferase derived from rabbit aorta homogenate; assay type: tissue-based
T1 sequence (Q95214 whole entry): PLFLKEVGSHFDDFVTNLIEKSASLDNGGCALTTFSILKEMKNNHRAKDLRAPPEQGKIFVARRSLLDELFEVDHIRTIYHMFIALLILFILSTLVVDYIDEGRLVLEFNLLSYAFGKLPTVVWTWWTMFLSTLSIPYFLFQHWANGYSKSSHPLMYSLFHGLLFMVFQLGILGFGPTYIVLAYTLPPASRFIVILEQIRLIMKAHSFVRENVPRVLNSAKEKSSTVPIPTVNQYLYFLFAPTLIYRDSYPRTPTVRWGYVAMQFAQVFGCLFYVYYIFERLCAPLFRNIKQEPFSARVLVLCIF

Rattus norvegicus [4] = assay: Tested for cholesterol lowering activity in rats after a dose of 4 mg/kg once a day for 2 days (at a dose of 1 mg/kg once a day for 2 days); assay type: functional
O-acyltransferase [5] = target: T2, O-acyltransferase (Oryctolagus cuniculus, UniProt G1SFD9); assay: Inhibition against acyl coenzyme A:cholesterol acyltransferase derived from rabbit intestine microsomes
T2 sequence (G1SFD9 1-524): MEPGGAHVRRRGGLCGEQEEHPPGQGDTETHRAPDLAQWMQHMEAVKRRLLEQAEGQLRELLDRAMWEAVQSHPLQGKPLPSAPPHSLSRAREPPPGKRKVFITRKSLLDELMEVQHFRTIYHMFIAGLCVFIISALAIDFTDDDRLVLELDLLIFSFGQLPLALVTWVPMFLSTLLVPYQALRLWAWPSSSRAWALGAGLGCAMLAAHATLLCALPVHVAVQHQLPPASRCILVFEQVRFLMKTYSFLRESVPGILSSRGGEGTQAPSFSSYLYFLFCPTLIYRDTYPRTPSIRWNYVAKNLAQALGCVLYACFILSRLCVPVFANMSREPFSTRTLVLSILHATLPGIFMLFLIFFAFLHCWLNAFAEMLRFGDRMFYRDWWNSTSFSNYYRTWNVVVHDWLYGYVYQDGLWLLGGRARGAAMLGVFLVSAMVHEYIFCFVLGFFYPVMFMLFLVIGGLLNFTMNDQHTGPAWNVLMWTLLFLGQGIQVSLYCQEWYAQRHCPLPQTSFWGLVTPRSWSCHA

Rattus norvegicus [6] = assay: Cholesterol lowering activity in rats after a dose of 1 mg/kg once a day for 2 days; assay type: functional
[7] = target: T1, Acyl-CoA:cholesterol acyltransferase; assay: Tested for inhibition against Acyl coenzyme A:cholesterol acyltransferase derived from rabbit aorta homogenate (>, denotes no effect at the concentration indicated)
O-acyltransferase [8] = target: T2, O-acyltransferase; assay: Tested for inhibition against Acyl coenzyme A:cholesterol acyltransferase derived from rabbit intestine microsomes (>, denotes no effect at the concentration indicated)

IC50 [3]	IC50 (O-acyltransferase [5])	IC50 [7]	IC50 (O-acyltransferase [8])	SMILES	ED30 (Rattus norvegicus [1])	Cholesterol reduction (Rattus norvegicus [2])	Cholesterol reduction (Rattus norvegicus [4])	Cholesterol reduction (Rattus norvegicus [6])
				CCCCCNC(=O)Nc1c(OCCCn2cnc(-c3ccccc3)c2C)cccc1N(C)C	1.9 mg/kg	-42%		
120 nM	50 nM			CCCCCNC(=O)Nc1c(C)cccc1OCCCn1cnc(-c2ccccc2)c1C			-51%	-38%
	340 nM	> 1000 nM		CCOCCNC(=O)Nc1c(C)cccc1OCCCn1cnc(-c2ccccc2)c1C				
	300 nM	> 1000 nM		COCCCNC(=O)Nc1c(C)cccc1OCCCn1cnc(-c2ccccc2)c1C				
12 nM	130 nM			CCCCNC(=O)Nc1c(C)cccc1OCCCn1cnc(-c2ccccc2)c1C(C)C	0.4 mg/kg			-52%
160 nM				CCCCNC(=O)Nc1c(C)cccc1OCCCn1cnc(-c2ccccc2)c1CC	0.5 mg/kg			-46%
260 nM	120 nM			CCCCCNC(=O)Nc1c(C)cccc1OCCCn1cnc(-c2ccc(Cl)cc2)c1		-59%		-43%
100 nM	260 nM			CCCCCNC(=O)Nc1c(C)cccc1OCCCn1cnc(-c2ccccc2C)c1		-48%		-25%
3300 nM			> 1000 nM	CCCCCNC(=O)Nc1c(CO)cccc1OCCCn1cnc(-c2ccccc2)c1C				
200 nM	210 nM			CCCCCNC(=O)Nc1c(C)cccc1OCCCn1cnc(-c2ccccc2)c1CO		-55%		-29%
120 nM	540 nM			CCCCCNC(=O)Nc1c(C)cccc1OCCCn1cnc(-c2ccccc2)c1CSC		-33%		-20%
				CCCCCCCN(Cc1ccc(CC(C)(C)C)cc1)C(=O)Nc1ccc(F)cc1F [CL-277082]	1.5 mg/kg			
63 nM	160 nM			CCCCCNC(=O)Nc1c(C)cccc1OCCCn1cnc(-c2ccccc2)c1CCC		-56%		-49%
98 nM	170 nM			CCCCCNC(=O)Nc1c(CCC)cccc1OCCCn1cnc(-c2ccccc2)c1C		-50%		-34%
220 nM	220 nM			CCCCCNC(=O)Nc1c(C)cccc1OCCCn1cnc2c1CCc1ccccc1-2		-56%		-30%
